Results from US5494790A, “α-3 sialyltransferase” (Kyowa Hakko Kogyo Co., Ltd., priority 1991, dated 1996).

Key:
[1] = system: α2→3 Sialyltransferase encoded in the plasmid pAMoPRSAL-35F (fused protein with the IgG-binding region of Staphylococcus aureus protein A); assay: Sialyltransferase activity on IgG Sepharose, HPLC of pyridylaminated sugar chain substrates (Table 1); type: biochemical, human; conditions: for α2→3 Sialyltransferase activity, pAMoPRSAL-35F, pmol: 0.1 mM substrate, 5 μl IgG Sepharose, 5 mM CMP-sialic acid, 37° C., 2 hours; for acceptance as substrate by the α2→3 sialyltransferase (in words): IgG Sepharose from Namalwa cells having pAMoPRSAL-35F; for α2→3 Sialyltransferase activity, pAMoPRSAL-35F, Relative activity: activity to the substrate LNnT taken as 100
[2] = biological target: T1, α2→3 sialyltransferase encoded in the plasmid pAMoPRSAW17-31F (fused protein with the IgG-binding region of Staphylococcus aureus protein A) (Homo sapiens, UniProt Q11206); assay: Sialyltransferase activity on IgG Sepharose, HPLC of pyridylaminated sugar chain substrates (Table 2); type: biochemical; conditions: for α2→3 Sialyltransferase activity, pAMoPRSAW17-31F, pmol: 0.1 mM substrate, 5 μl IgG Sepharose, 5 mM CMP-sialic acid, 37° C., 2 hours; for acceptance as substrate by the α2→3 sialyltransferase (in words): IgG Sepharose from Namalwa cells having pAMoPRSAW17-31F; for α2→3 Sialyltransferase activity, pAMoPRSAW17-31F, Relative activity: activity to the substrate LNnT taken as 100
T1 construct: from 31st Phe to 329th Phe; made in house
T1 sequence (Q11206 35-333): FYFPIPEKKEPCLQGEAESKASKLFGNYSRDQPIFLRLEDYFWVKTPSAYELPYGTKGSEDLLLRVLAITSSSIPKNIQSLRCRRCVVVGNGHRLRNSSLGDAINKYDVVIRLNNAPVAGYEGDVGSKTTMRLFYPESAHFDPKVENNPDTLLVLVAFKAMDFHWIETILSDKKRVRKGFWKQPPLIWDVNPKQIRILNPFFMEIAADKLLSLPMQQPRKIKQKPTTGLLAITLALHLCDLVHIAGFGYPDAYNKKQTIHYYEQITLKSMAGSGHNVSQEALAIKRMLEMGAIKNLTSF

[3] = biological target: T2, known α2→3 sialyltransferase (Rattus norvegicus, UniProt Q02734); conditions: activity to the substrate LNT taken as 100; cited from earlier work
T2 sequence (Q02734 1-374): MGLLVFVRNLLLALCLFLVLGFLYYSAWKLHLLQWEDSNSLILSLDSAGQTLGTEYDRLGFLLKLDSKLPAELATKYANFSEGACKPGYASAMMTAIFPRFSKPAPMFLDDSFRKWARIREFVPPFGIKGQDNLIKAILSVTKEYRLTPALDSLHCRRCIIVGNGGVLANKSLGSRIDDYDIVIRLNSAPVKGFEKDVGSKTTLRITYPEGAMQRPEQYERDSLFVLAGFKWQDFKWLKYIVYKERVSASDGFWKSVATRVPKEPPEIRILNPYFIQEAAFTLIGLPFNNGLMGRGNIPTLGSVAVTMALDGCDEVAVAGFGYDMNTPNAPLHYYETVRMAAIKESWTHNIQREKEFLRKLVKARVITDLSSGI

Compound: CC(=O)N[C@H]1[C@H](O[C@H]2[C@@H](O)[C@@H](CO)O[C@@H](O[C@H]3[C@H](O)[C@@H](O)C(O)O[C@@H]3CO)[C@@H]2O)O[C@H](CO)[C@@H](O)[C@@H]1O[C@@H]1O[C@H](CO)[C@H](O)[C@H](O)[C@H]1O (some centres unmarked) [LNT, Galβ1-3GlcNAcβ1-3Galβ1-4Glc]
- α2→3 Sialyltransferase activity, pAMoPRSAL-35F, pmol [1]: 23.8 pmol
- acceptance as substrate by the α2→3 sialyltransferase (in words) [1]: can take not only LNnT but also LNT as the substrate
- α2→3 Sialyltransferase activity, pAMoPRSAL-35F, Relative activity [1]: 46
- α2→3 Sialyltransferase activity, pAMoPRSAW17-31F, pmol [2]: 47.5 pmol
- acceptance as substrate by the α2→3 sialyltransferase (in words) [2]: can take not only LNnT but also LNT as the substrate
- α2→3 Sialyltransferase activity, pAMoPRSAW17-31F, Relative activity [2]: 42
- Known α2→3 ST Relative activity (Table 1) [3]: 100
- Known α2→3 ST Relative activity (Table 2) [3]: 100

Compound: CC(=O)N[C@H]1[C@H](O[C@H]2[C@@H](O)[C@@H](CO)O[C@@H](O[C@H]3[C@H](O)[C@@H](O)C(O)O[C@@H]3CO)[C@@H]2O)O[C@H](CO)[C@@H](O[C@@H]2O[C@H](CO)[C@H](O)[C@H](O)[C@H]2O)[C@@H]1O (some centres unmarked) [LNnT, Galβ1-4GlcNAcβ1-3Galβ1-4Glc]
- α2→3 Sialyltransferase activity, pAMoPRSAL-35F, pmol [1]: 51.3 pmol
- acceptance as substrate by the α2→3 sialyltransferase (in words) [1]: can take not only LNnT but also LNT as the substrate
- α2→3 Sialyltransferase activity, pAMoPRSAL-35F, Relative activity [1]: 100
- α2→3 Sialyltransferase activity, pAMoPRSAW17-31F, pmol [2]: 113.8 pmol
- acceptance as substrate by the α2→3 sialyltransferase (in words) [2]: can take not only LNnT but also LNT as the substrate
- α2→3 Sialyltransferase activity, pAMoPRSAW17-31F, Relative activity [2]: 100
- Known α2→3 ST Relative activity (Table 1) [3]: 6
- Known α2→3 ST Relative activity (Table 2) [3]: 6

Compound: CC(=O)N[C@H]1[C@H](O[C@H]2[C@@H](O)[C@@H](CO)O[C@@H](O[C@H]3[C@H](O)[C@@H](O)C(O)O[C@@H]3CO)[C@@H]2O)O[C@H](CO)[C@@H](O[C@@H]2O[C@H](CO)[C@H](O)[C@H](O)[C@H]2O)[C@@H]1O[C@@H]1O[C@@H](C)[C@@H](O)[C@@H](O)[C@@H]1O (some centres unmarked) [lacto-N-fucopentaose III]
- α2→3 Sialyltransferase activity, pAMoPRSAL-35F, pmol [1]: 8.1 pmol
- acceptance as substrate by the α2→3 sialyltransferase (in words) [1]: can take LNFP-III as the substrate
- α2→3 Sialyltransferase activity, pAMoPRSAL-35F, Relative activity [1]: 16
- α2→3 Sialyltransferase activity, pAMoPRSAW17-31F, pmol [2]: 9.4 pmol
- acceptance as substrate by the α2→3 sialyltransferase (in words) [2]: can take LNFP-III as the substrate
- α2→3 Sialyltransferase activity, pAMoPRSAW17-31F, Relative activity [2]: 8

Compound: CC(=O)N[C@H]1[C@H](O[C@H]2[C@@H](O)[C@@H](CO)O[C@@H](O[C@H]3[C@H](O[C@@H]4O[C@@H](C)[C@@H](O)[C@@H](O)[C@@H]4O)[C@@H](O)C(O)O[C@@H]3CO)[C@@H]2O)O[C@H](CO)[C@@H](O)[C@@H]1O[C@@H]1O[C@H](CO)[C@H](O)[C@H](O)[C@H]1O (some centres unmarked) [lacto-N-fucopentaose V]
- α2→3 Sialyltransferase activity, pAMoPRSAL-35F, pmol [1]: 28.8 pmol
- α2→3 Sialyltransferase activity, pAMoPRSAL-35F, Relative activity [1]: 56
- α2→3 Sialyltransferase activity, pAMoPRSAW17-31F, pmol [2]: 36.3 pmol
- α2→3 Sialyltransferase activity, pAMoPRSAW17-31F, Relative activity [2]: 32
